Test results: publication PMC11002876, “KcsA-Kv1.x chimeras with complete ligand-binding sites provide improved predictivity for screening selective Kv1.x blockers” (The Journal of Biological Chemistry, 2024)
Where a SMILES comes first, the peptide text is derived from it.

Molecular target: T1, KcsA-Kv1.1 T+F chimera (Streptomyces lividans, UniProt P0A334, R52A/G53E/A54E/P55A/G56E/A57S/Q58H/L59F/I60S/T61S/Y62I/R64D/L81M)
T1 sequence (P0A334 1-160 R52A/G53E/A54E/P55A/G56E/A57S/Q58H/L59F/I60S/T61S/Y62I/R64D/L81M): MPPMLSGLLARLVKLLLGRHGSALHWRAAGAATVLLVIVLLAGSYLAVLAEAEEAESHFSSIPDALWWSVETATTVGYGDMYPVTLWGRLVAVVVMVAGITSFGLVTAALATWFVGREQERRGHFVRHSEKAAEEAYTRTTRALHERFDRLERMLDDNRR
Experiment: Phage ELISA-binding assay, KcsA-Kv1.1 T+F
Design: species or system human Kv1.1 turret and filter in Streptomyces lividans KcsA
Details: toxin displayed on M13 phage; Fig. 8D
Description: Phage display test solutions were prepared according to routine phage display protocols ([62]). Phosphorylated and annealed oligonucleotides encoding the peptide construct were ligated into linearized pAS62 phagemid vector (https://patents.google.com/patent/WO2022144560A1/en) at a vector/insert ratio of 1:3. The final phagemid construct harbored a signal sequence followed by the peptide of interest, a linker sequence ([…]), and the C-terminal part of the P3 coat protein (amino acids: 216-424 of NP_510891.1). Chemically competent XL1-Blue E. coli cells (2022249, Agilent) were transformed with the ligation product and then streaked onto ampicillin (100 μg/ml) containing LB/Amp plates and incubated for 16 h at 37 °C. A few clones were sequenced, and a single colony with confirmed target sequence was inoculated into 3 ml 2 YT medium supplemented with 100 μg/ml ampicillin and incubated at 37 °C until the culture reached midlog phase. The culture was infected with M13KO7 helper phage (N0315S, New England Biolabs) (phage/cell ratio 10:1) and was incubated for 30 min at 37 °C. The 3 ml culture was transferred into 200 ml 2YT medium, supplemented with 100 μg/ml ampicillin and 25 μg/ml kanamycin, and incubated overnight at 37 °C. The overnight cell culture (200 ml) was pelleted by centrifugation at 8000g for 10 min in 400 ml centrifuge tubes at 4 °C. […] The particle concentrations of phage solutions were determined using a NanoDrop One C (Thermo Fisher Scientific) spectrophotometer. The phage particle concentration was assessed according to the formula: (A268–A320) × 5 × 10^12 particles/ml ([62]). […]
Phage stock solutions were diluted to working concentration with phage resuspension buffer supplemented with 2 mM DDM. […] Following blocking, the wells were washed 4× with washing buffer (300 μl TBS-Tween, 0.1% v/v) using a Wellwash Versa microplate washer (Thermo Fisher Scientific); then 50 μl phage solution (in TBS-BSA-Tween, 0.1% v/v, 2 mM DDM) at determined phage concentration was added to the wells and incubated for 1 h at room temperature on a horizontal shaker. […]

Structure (SMILES)	phage binding to KcsA-Kv1.1 T+F, in words
CC[C@H](C)[C@H](NC(=O)[C@H](CCC(=O)O)NC(=O)[C@@H](NC(=O)CN)C(C)C)C(=O)N[C@@H](CC(N)=O)C(=O)N[C@H](C(=O)N[C@@H](CCCCN)C(=O)N[C@H]1CSSC[C@@H]2NC(=O)[C@H](CCCCN)NC(=O)CNC(=O)[C@H](Cc3ccccc3)NC(=O)[C@H](CCCNC(=N)N)NC(=O)[C@H](CCSC)NC(=O)CNC(=O)[C@H](C)NC(=O)[C@H](CC(=O)O)NC(=O)[C@H](CCCCN)NC(=O)[C@@H]3CSSC[C@@H](C(=O)N[C@H](C(=O)N4CCC[C@H]4C(=O)N[C@@H](CCCCN)C(=O)O)[C@@H](C)O)NC(=O)[C@H](Cc4c[nH]cn4)NC(=O)[C@H](CSSC[C@H](NC(=O)[C@H](CCC(N)=O)NC(=O)[C@@H]4CCCN4C(=O)[C@H](CO)NC(=O)CNC(=O)[C@H](CO)NC1=O)C(=O)N[C@@H](CC(C)C)C(=O)N[C@@H](CCCCN)C(=O)N1CCC[C@H]1C(=O)N3)NC(=O)[C@H](CCCCN)NC(=O)[C@H](CCCNC(=N)N)NC(=O)[C@H](CC(N)=O)NC(=O)[C@H](CCSC)NC2=O)C(C)C [KTX1, Kaliotoxin-1]	ShK > KTX1
CC[C@H](C)[C@@H]1NC(=O)[C@@H]2CSSC[C@H](NC(=O)[C@H](CO)NC(=O)[C@@H](N)C(C)C)C(=O)N[C@@H]([C@@H](C)O)C(=O)NCC(=O)N[C@@H](CO)C(=O)N[C@@H](CCCCN)C(=O)N[C@@H](CC(=O)O)C(=O)N[C@@H](CSSC[C@@H](C(=O)N[C@@H](CCCCN)C(=O)N[C@H]3CSSC[C@@H](C(N)=O)NC(=O)CNC(=O)[C@H](Cc4ccc(O)cc4)NC3=O)NC(=O)[C@H](CO)NC(=O)[C@H](CCCCN)NC(=O)[C@H](CC(N)=O)NC1=O)C(=O)N[C@@H](Cc1ccc(O)cc1)C(=O)N[C@@H](C)C(=O)N1CCC[C@H]1C(=O)N[C@H]1CSSC[C@H](NC(=O)CNC(=O)[C@H]([C@@H](C)O)NC(=O)[C@H](CCC(N)=O)NC(=O)[C@H](CCCCN)NC(=O)[C@H](CCCNC(=N)N)NC1=O)C(=O)N1CCC[C@H]1C(=O)N[C@@H](CC(N)=O)C(=O)N[C@@H](C)C(=O)N[C@@H](CCCCN)C(=O)N2 [MTX, Maurotoxin] (HELM PEPTIDE1{V.S.C.T.G.S.K.D.C.Y.A.P.C.R.K.Q.T.G.C.P.N.A.K.C.I.N.K.S.C.K.C.Y.G.C.[am]}$PEPTIDE1,PEPTIDE1,3:R3-24:R3|PEPTIDE1,PEPTIDE1,9:R3-29:R3|PEPTIDE1,PEPTIDE1,13:R3-19:R3|PEPTIDE1,PEPTIDE1,31:R3-34:R3$$$V2.0; N-terminus and C-terminus assumed)	negligible binding
CC[C@H](C)[C@@H]1NC(=O)[C@@H](NC(=O)[C@H](CO)NC(=O)[C@@H](N)CCCNC(=N)N)CSSC[C@@H](C(=O)O)NC(=O)[C@H]([C@@H](C)O)NC(=O)CNC(=O)[C@@H]2CSSC[C@@H]3NC(=O)[C@H](CCC(N)=O)NC(=O)[C@H](Cc4ccccc4)NC(=O)[C@H](C)NC(=O)[C@H]([C@@H](C)O)NC(=O)[C@H](CSSC[C@H](NC(=O)[C@H](Cc4ccccc4)NC(=O)[C@H](CO)NC(=O)[C@H](CC(C)C)NC(=O)[C@H](CCCNC(=N)N)NC(=O)[C@H](Cc4ccc(O)cc4)NC(=O)[C@H](CCCCN)NC(=O)[C@H](CCSC)NC(=O)[C@H](CO)NC(=O)[C@H](Cc4c[nH]cn4)NC(=O)[C@H](CCCCN)NC3=O)C(=O)N[C@@H](CCCNC(=N)N)C(=O)N[C@@H](CCCCN)C(=O)N[C@@H]([C@@H](C)O)C(=O)N2)NC(=O)[C@H](CCCNC(=N)N)NC(=O)[C@H](CO)NC(=O)[C@H](CCCCN)NC(=O)[C@@H]2CCCN2C(=O)[C@H]([C@@H](C)CC)NC(=O)[C@H]([C@@H](C)O)NC(=O)[C@H](CC(=O)O)NC1=O [ShK, Stichodactyla toxin]	ShK > KTX1
